These results are taken from patent US20260026522A1, “METHODS AND DEVICE FOR CO-TREATMENT OF CROP PROTECTION CHEMICALS WITH PLANT GROWTH REGULATORS” (AGROFRESH INC., priority 2016, published 2026).

The test system of experiment [1] is Botrytis cinerea. Nature of the experiment: Fungicide fogging of wounded, inoculated Red Delicious apples: Botrytis lesion size. The experiment is classed as in vivo, Botrytis cinerea on Red Delicious apples. As to conditions: measured Day 4. Here is the method:
(§1) This experiment was conducted exactly the same as described above in Example 1 unless noted otherwise. For example, instead of Golden Delicious apples, this experiment was performed on Red Delicious apples, which are harvested later in the season than Golden Delicious apples. Freshly harvested Red Delicious apples were wounded on the left and right side with Penicillium and Botrytis fungal pathogens, respectively. After inoculation, the apples remained at 20° C. throughout the remainder of the experimental trial to measure growth of the Botrytis fungal pathogen. Inoculated fruits were separated in preparation for an initial trial which comprised three replicates of 10-fruit cohorts totaling 5.5 kg of Red Delicious apples, respectively (see Table 1).
(§2) In this trial, replicate cohorts of Red Delicious apples were fog treated with 250 μL of the benzoxaborole (BOB) solution, 620 μL of the thiabendazole (TBZ) solution, 410 μL of the pyrimethanil (PYR) solution, or 250 μL of the fludioxonil (FDL) solution, respectively (see Table 1). The fungicide fogging treatment was applied to the Red Delicious apples in the sealed treatment chamber comprising a volume of 1.1 m^3 such that the final concentration of active ingredient (“ai”) of each fungicide applied to the Red Delicious apples during the trial was 4.6 mg/kg of benzoxaborole (BOB), 11.2 mg/kg of thiabendazole (TBZ) solution, 11.8 mg/kg of pyrimethanil (PYR) solution, and 4.6 mg/kg of fludioxonil (FDL), respectively (see Table 1).
(§3) After 24 hours of fungicide treatment in the sealed chamber at 20° C., treated apples were returned back to the closed, controlled environment for storage. As described in Example 1, storage of treated Red Delicious apples occurred for at least 12 hours and for up to approximately 72 hours until Day 4 when fungal lesions on the treated Red Delicious apples were measured (see Table 2).

Experiment [2] concerns Penicillium expansum. Nature of the experiment: Fungicide fogging of wounded, inoculated Red Delicious apples: Penicillium lesion size. The format is in vivo, Penicillium expansum on Red Delicious apples. As to conditions: for Fungal Lesion Diameter: Penicillium expansum, measured Day 4; for Inhibition of Penicillium expansum fungal growth compared to untreated and propylene glycol controls / Penicillium expansum lesion sizes, range over treatment days: treated on Days 0-3. Here is the method: as §1, §2, §3
This experiment was conducted exactly the same as described above in Example 2 unless noted otherwise. In particular, freshly harvested Red Delicious apples were wounded on the left and right side with Penicillium and Botrytis fungal pathogens, respectively. After inoculation, the apples remained at 20° C. throughout the remainder of the experimental trial to measure growth of the Penicillium fungal pathogen.

Experiment [3] has as its system Penicillium expansum and Botrytis cinerea. Put plainly: Fungicide fogging of wounded, inoculated Golden Delicious apples: fungal lesion size. The conditions noted are these: 24 h fog at 20° C., measured Day 3 or 4. The format is in vivo. The text has this:
Freshly harvested plants and crops, such as fruit crops (e.g. apple fruits), were wounded and inoculated with fungal pathogens. Immediately after harvest on Day 0, Golden Delicious apples were wounded on the left and/or the right sides of the fruit. The wounds were immediately inoculated with one or more fungal strains. For example, the wounds on the left side of the fruit were inoculated with Penicillium, while the wounds on the right side of the fruit were inoculated with Botrytis. After inoculation, the apples remained at 20° C. throughout the remainder of the experimental trial.
Inoculated fruits were separated in preparation for an experimental trial that comprised three replicates of 10-fruit cohorts each totaling 5.1 kg of Golden Delicious apples (see Table 1). After inoculation, the apples were held at 20° C. in a closed, controlled environment until fungicide treatment. Prior to fungicide treatment, a fruit cohort was removed from the controlled environment and transported to a sealed treatment chamber having a temperature of 20° C. The fruit cohorts were each treated with a single respective fungicide on Day 0 (i.e., day of harvest), as well as Days 1, 2, 3, and/or 4 after harvest (see Table 2).
More specifically, each fruit cohort was treated a single time for 24 hours with a specific fungicide solution comprising the following active ingredients: benzoxaborole (BOB), thiabendazole (TBZ), pyrimethanil (PYR), and fludioxonil (FDL) as described in Table 1 below. The fungicide solutions used to treat inoculated apples comprised the following concentration of active ingredients: a 100 g/L of benzoxaborole (BOB), thiabendazole (TBZ), and fludioxonil (FDL), or a 160 g/L of pyrimethanil (PYR), respectively (see Table 1).
Inoculated fruits were also treated with a propylene glycol-inoculated negative control (GLY IC). This propylene glycol-inoculated control treatment comprised only propylene glycol, a common fungicide treatment carrier, with no active ingredient (see Table 1). In addition, another cohort of inoculated fruits was not treated with a fungicide at all to produce an untreated inoculated control (UNTRT IC).
In this trial, replicate cohorts of Golden Delicious apples were treated by fogging with 167 μL of the benzoxaborole (BOB) solution, 270 μL of the thiabendazole (TBZ) solution, 410 μL of the pyrimethanil (PYR) solution, or 170 μL of the fludioxonil (FDL) solution, respectively (see Table 1). The fungicide fogging treatment was applied to the Golden Delicious apples in the sealed treatment chamber comprising a volume of 1.1 m^3 such that the final concentration of active ingredient (“ai”) of each fungicide applied to the Golden Delicious apples during the trial was 3.3 mg/kg of benzoxaborole (BOB), 8.0 mg/kg of thiabendazole (TBZ) solution, 8.5 mg/kg of pyrimethanil (PYR) solution, and 3.3 mg/kg of fludioxonil (FDL), respectively (see Table 1).
After 24 hours of fungicide treatment in the sealed chamber at 20° C., treated apples were returned back to the closed, controlled environment for storage. Storage of treated fruit occurred for at least 12 hours and for up to approximately 72 hours until Day 3 or Day 4 when fungal lesions on the treated fruit were measured (see Table 2). For example, inoculated fruit cohorts treated with fungicide on Day 0, where returned to the control chamber on Day 1 and stored there for at least 12 hours (e.g., approximately 48-72 hours) until their fungal lesions were measured on Days 3 or 4 (see Table 2). Inoculated fruit cohorts treated with fungicide on Day 1, where returned to the control chamber on Day 2 and stored there for at least 12 hours (e.g., approximately 24-48 hours) until their fungal lesions were measured on Days 3 or 4 (see Table 2). […]

The mark [4] stands for this setting: Fungicide Fog Day 0, 24 h fog at 20° C.
[5] abbreviates: Fungicide Fog Day 1, 24 h fog at 20° C.
[6] abbreviates: Fungicide Fog Day 2, 24 h fog at 20° C.
Setting [7] is: Fungicide Fog Day 3, 24 h fog at 20° C.
Setting [8] is: Fungicide Fog Day 0, Penicillium and Botrytis lesions averaged.
Where [9] appears, read: Fungicide Fog Day 1, Penicillium and Botrytis lesions averaged.
Where [10] appears, read: Fungicide Fog Day 2, Penicillium and Botrytis lesions averaged.

Molecules are shown by their SMILES.

Regarding `c1ccc2[nH]c(-c3cscn3)nc2c1` [TBZ, 4-(1H-1,3-Benzodiazol-2-yl)-1,3-thiazole], the “Fungal Lesion Diameter” value in experiment [1] (setting [4]) stood at 10.9 mm; in experiment [1] (setting [5]), 12.1 mm; in experiment [1] (setting [6]), 12.7 mm; in experiment [1] (setting [7]), 12.4 mm; in experiment [2] (setting [4]), 18.0 mm; in experiment [2] (setting [5]), 18.4 mm. Besides, the “Fungal Lesion Diameter” value was found to be 17.6 mm in experiment [2] (setting [6]); 18.3 mm in experiment [2] (setting [7]); 2.0 mm in experiment [3] (setting [8]); 4.5 mm in experiment [3] (setting [9]); 4.9 mm in experiment [3] (setting [10]). Besides, the “Inhibition of Penicillium expansum fungal growth compared to untreated and propylene glycol controls” value in experiment [2] was “Neither treatments comprising pyrimethanil (PYR) nor thiabendazole (TBZ) showed a consistent increase in inhibition of Penicillium expansum fungal growth or any significant difference”. Moreover, in experiment [2], the “Penicillium expansum lesion sizes, range over treatment days” value is on record as 17.6-18.4 mm.
Consider `Cc1cc(C)nc(Nc2ccccc2)n1` [PYR, 4,6-Dimethyl-N-phenylpyrimidin-2-amine], for which the “Fungal Lesion Diameter” value in experiment [1] (setting [4]) was 9.2 mm; in experiment [1] (setting [5]), 10.4 mm; in experiment [1] (setting [6]), 12.4 mm; in experiment [1] (setting [7]), 12.5 mm; in experiment [2] (setting [4]) it was 17.2 mm; in experiment [2] (setting [5]), 17.1 mm. Moreover, the “Fungal Lesion Diameter” value came to 18.3 mm in experiment [2] (setting [6]); 18.3 mm in experiment [2] (setting [7]); 0.4 mm in experiment [3] (setting [8]); 1.3 mm in experiment [3] (setting [9]); 3.6 mm in experiment [3] (setting [10]). Further, the “Inhibition of Penicillium expansum fungal growth compared to untreated and propylene glycol controls” value in experiment [2] is “Neither treatments comprising pyrimethanil (PYR) nor thiabendazole (TBZ) showed a consistent increase in inhibition of Penicillium expansum fungal growth or any significant difference”. Further, the “Penicillium expansum lesion sizes, range over treatment days” value in experiment [2] was 17.1-18.3 mm.
In the case of `N#CC1=CN=CC1c1cccc2c1OC(F)(F)O2` (stereo not shown) [FDL, 4-(2,2-difluoro-1,3-benzodioxol-4-yl)-1H-pyrrole-3-carbonitrile], the “Fungal Lesion Diameter” value in experiment [1] (setting [4]) amounted to 4.1 mm; in experiment [1] (setting [5]) it was 7.0 mm; in experiment [1] (setting [6]) it was 8.2 mm; in experiment [1] (setting [7]), 11.7 mm; in experiment [2] (setting [4]), 11.0 mm; in experiment [2] (setting [5]), 13.2 mm. Also, the “Fungal Lesion Diameter” value worked out at 13.4 mm in experiment [2] (setting [6]); 15.5 mm in experiment [2] (setting [7]); 1.6 mm in experiment [3] (setting [8]); 2.7 mm in experiment [3] (setting [9]); 3.0 mm in experiment [3] (setting [10]).
